# The supplement of paper PMC11061612
# Columns and labels:
# Assay in all cases: combination Emax (second highest fraction inhibited in the dose matrix, 72 h); higher = more inhibition; extreme values may be limits of the assay
# [1] = system: SW982 (Other Solid Carcinomas)
# Summary of the method: (§1)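 Bliss excess equals the observed combination effect minus the expected value EA + EB − EA·EB, where EA and EB are the effects of each agent alone. Combination Emax is the second-highest inhibition within the matrix. Inhibition was scaled from CellTiter-Glo 2.0 luminescence, with 0 set by vehicle wells and 1 by blank wells, after 72 hours of two-drug dosing of cells plated in 1536-well plates.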
# [2] = system: NCI-H1092 (Small Cell Lung Carcinoma)
# Summary of the method: as §1
# [3] = system: ALL-SIL (T-Lymphoblastic Leukemia)
# Summary of the method: as §1
# [4] = system: HCC2998 (Colorectal Carcinoma)
# Summary of the method: as §1
# [5] = system: ML-2 (Acute Myeloid Leukemia)
# Summary of the method: as §1
# [6] = system: KMRC-1 (Kidney Carcinoma)
# Summary of the method: as §1
# [7] = system: NCI-H1838 (Lung Adenocarcinoma)
# Summary of the method: as §1
# [8] = system: LC-1-sq (Squamous Cell Lung Carcinoma)
# Summary of the method: as §1
# [9] = system: SW872 (Other Solid Carcinomas)
# Summary of the method: as §1
# [10] = system: COLO-679 (Melanoma)
# Summary of the method: as §1
# [11] = system: SNU-387 (Hepatocellular Carcinoma)
# Summary of the method: as §1
# [12] = system: SKN (Other Solid Carcinomas)
# Summary of the method: as §1
# [13] = system: KOPN-8 (B-Lymphoblastic Leukemia)
# Summary of the method: as §1
# [14] = system: A4-Fuk (B-Lymphoblastic Leukemia)
# Summary of the method: as §1
# [15] = system: NCI-H1993 (Lung Adenocarcinoma)
# Summary of the method: as §1
# [16] = system: SK-N-AS (Neuroblastoma)
# Summary of the method: as §1
# [17] = system: MDA-MB-453 (Breast Carcinoma)
# Summary of the method: as §1
# [18] = system: EJM (Plasma Cell Myeloma)
# Summary of the method: as §1
# [19] = system: NCI-H1355 (Lung Adenocarcinoma)
# Summary of the method: as §1
# [20] = system: MOLT-4 (T-Lymphoblastic Leukemia)
# Summary of the method: as §1
Compound,combination Emax [1],combination Emax [2],combination Emax [3],combination Emax [4],combination Emax [5],combination Emax [6],combination Emax [7],combination Emax [8],combination Emax [9],combination Emax [10],combination Emax [11],combination Emax [12],combination Emax [13],combination Emax [14],combination Emax [15],combination Emax [16],combination Emax [17],combination Emax [18],combination Emax [19],combination Emax [20]
"CC(=O)c1c(C)c2cnc(Nc3ccc(N4CCNCC4)cn3)nc2n(C2CCCC2)c1=O [Palbociclib] + Cn1cnc2c(F)c(Nc3ccc(Br)cc3Cl)c(C(=O)NOCCO)cc21 [Selumetinib] (first compound max 10 µM, 7x7, partner max 10 µM)",0.579,0.11,0.38,0.781,0.869,0.218,0.321,0.235,0.169,0.75,0.221,0.349,0.801,0.732,0.69,0.577,0.241,0.182,0.325,0.766
"C[C@@H]1COCCN1c1cc(C2([S@](C)(=N)=O)CC2)nc(-c2ccnc3[nH]ccc23)n1 [AZD6738] + O=C(c1cc(Cc2n[nH]c(=O)c3ccccc23)ccc1F)N1CCN(C(=O)C2CC2)CC1 [Olaparib] (first compound max 10 µM, 7x7, partner max 10 µM)",0.781,0.184,0.95,0.811,0.955,0.566,0.542,0.839,0.63,0.661,0.575,0.417,0.876,0.706,0.549,0.687,0.794,0.899,0.712,1
"CC1(C)CCC(CN2CCN(c3ccc(C(=O)NS(=O)(=O)c4ccc(NCC5CCOCC5)c([N+](=O)[O-])c4)c(Oc4cnc5[nH]ccc5c4)c3)CC2)=C(c2ccc(Cl)cc2)C1 [Venetoclax] + C=CCn1c(=O)c2cnc(Nc3ccc(N4CCN(C)CC4)cc3)nc2n1-c1cccc(C(C)(C)O)n1 [AZD1775] (first compound max 1 µM, partner max 1 µM)",0.742,0.696,1,0.599,1,0.394,0.421,0.689,0.557,0.413,0.702,0.556,1,0.883,0.629,0.953,0.769,0.928,0.607,1
"CC1(C)CCC(CN2CCN(c3ccc(C(=O)NS(=O)(=O)c4ccc(NCC5CCOCC5)c([N+](=O)[O-])c4)c(Oc4cnc5[nH]ccc5c4)c3)CC2)=C(c2ccc(Cl)cc2)C1 [Venetoclax] + C[C@@H](Nc1cc(F)cc(F)c1)c1cc(C(=O)N(C)C)cc2c(=O)cc(N3CCOCC3)oc12 [AZD8186] (first compound max 1 µM, 7x7, partner max 3 µM)",0.382,0.384,0.637,0.145,0.983,0.532,0.0996,0.187,0.167,0.273,0.21,0.456,0.829,0.655,0.296,0.0826,0.703,0.278,0.196,0.422
"CS(=O)(=O)CCNCc1ccc(-c2ccc3ncnc(Nc4ccc(OCc5cccc(F)c5)c(Cl)c4)c3c2)o1 [Lapatinib] + C[C@@H](Oc1cc(-c2cnn(C3CCNCC3)c2)cnc1N)c1c(Cl)ccc(F)c1Cl [Crizotinib] (first compound max 10 µM, 7x7, partner max 10 µM)",0.968,0.604,1,0.938,0.983,0.952,0.436,0.931,0.496,0.68,0.93,0.743,0.978,0.976,0.94,0.359,0.531,0.937,0.564,0.966
"CS(=O)(=O)CCNCc1ccc(-c2ccc3ncnc(Nc4ccc(OCc5cccc(F)c5)c(Cl)c4)c3c2)o1 [Lapatinib] + NC1(c2ccc(-c3nc4ccn5c(=O)[nH]nc5c4cc3-c3ccccc3)cc2)CCC1 [MK-2206] (first compound max 10 µM, 7x7, partner max 10 µM)",0.894,0.791,–,–,0.785,0.792,0.348,–,0.247,0.618,0.873,0.658,0.936,0.971,0.68,0.16,0.801,–,0.286,0.938
"C=CCn1c(=O)c2cnc(Nc3ccc(N4CCN(C)CC4)cc3)nc2n1-c1cccc(C(C)(C)O)n1 [AZD1775] + C1CN(CCC1(C(=O)N[C@@H](CCO)C2=CC=C(C=C2)Cl)N)C3=NC=NC4=C3C=CN4 [Capivasertib] (first compound max 3 µM, partner max 3 µM)",0.674,0.533,0.936,0.831,0.994,0.593,0.501,0.761,–,0.412,0.687,0.576,0.968,0.859,0.701,0.766,0.859,0.923,0.646,0.989
"C=CCn1c(=O)c2cnc(Nc3ccc(N4CCN(C)CC4)cc3)nc2n1-c1cccc(C(C)(C)O)n1 [AZD1775] + C[C@@H]1COCCN1C2=NC(=NC(=C2)C3(CC3)[S@](=N)(=O)C)C4=C5C=CNC5=NC=C4 [AZD6738] (first compound max 1 µM, partner max 10 µM)",0.807,0.397,0.992,0.938,1,0.669,0.733,0.938,0.83,0.723,0.7,0.506,0.965,0.875,0.689,–,0.891,0.904,0.777,1
"CCc1c2c(nc3ccc(O)cc13)-c1cc3c(c(=O)n1C2)COC(=O)[C@]3(O)CC [SN-38] + O=C(c1cc(Cc2n[nH]c(=O)c3ccccc23)ccc1F)N1CCN(C(=O)C2CC2)CC1 [Olaparib] (first compound max 0.3 µM, 7x7, partner max 10 µM)",0.789,0.54,1,–,1,0.318,–,0.455,1,0.743,0.146,0.596,0.965,0.96,0.635,0.76,0.746,0.944,0.366,1
"C=CCn1c(=O)c2cnc(Nc3ccc(N4CCN(C)CC4)cc3)nc2n1-c1cccc(C(C)(C)O)n1 [AZD1775] + Nc1ccn([C@@H]2O[C@H](CO)[C@@H](O)C2(F)F)c(=O)n1 [Gemcitabine] (first compound max 1 µM, partner max 0.3 µM)",0.888,–,–,–,1,0.717,–,–,0.825,0.76,0.552,0.633,–,0.965,0.905,0.704,0.539,–,0.614,1
"Cc1c2c(nn1C)CSCc1cc(n(C)n1)CSc1cc(c3ccccc3c1)OCCCc1c(C(=O)O)n(C)c3c-2c(Cl)ccc13 [AZD5991] + CC(=O)O[C@H]1C(=O)[C@@]2(C)[C@H]([C@H](OC(=O)c3ccccc3)[C@]3(O)C[C@H](OC(=O)[C@H](O)[C@@H](NC(=O)c4ccccc4)c4ccccc4)C(C)=C1C3(C)C)[C@]1(OC(C)=O)CO[C@@H]1C[C@@H]2O [Paclitaxel] (first compound max 1 µM, 7x7, partner max 3 µM)",0.953,–,–,–,1,0.508,–,–,0.869,0.565,0.913,0.694,–,1,0.863,0.83,0.92,–,0.76,0.991
"CC1(C)CCC(CN2CCN(c3ccc(C(=O)NS(=O)(=O)c4ccc(NCC5CCOCC5)c([N+](=O)[O-])c4)c(Oc4cnc5[nH]ccc5c4)c3)CC2)=C(c2ccc(Cl)cc2)C1 [Venetoclax] + CS(=O)(=O)CCNCc1ccc(-c2ccc3ncnc(Nc4ccc(OCc5cccc(F)c5)c(Cl)c4)c3c2)o1 [Lapatinib] (first compound max 1 µM, 7x7, partner max 10 µM)",0.437,–,–,–,0.977,0.595,–,–,0.0911,0.0296,0.078,0.196,–,0.832,0.262,0.118,0.419,–,0.16,0.502
"C[C@@H](Nc1cc(F)cc(F)c1)c1cc(C(=O)N(C)C)cc2c(=O)cc(N3CCOCC3)oc12 [AZD8186] + C1CN(CCC1(C(=O)N[C@@H](CCO)C2=CC=C(C=C2)Cl)N)C3=NC=NC4=C3C=CN4 [AZD5363] (first compound max 10 µM, 7x7, partner max 10 µM)",0.512,–,–,–,0.558,0.618,–,–,0.427,0.273,0.472,0.557,–,0.76,0.636,0.135,0.573,–,0.395,0.437
